From patent US9587266B2, “Mutant luciferases” (University of Massachusetts, priority 2011, dated 2017)
Several values for one entry are separate records, joined by “and”; a condition that tells them apart may be missing. Equal values may be shown once. Read-outs that look alike come from different tables or passages of the source.

What was measured:
Format in all cases: biochemical
WT luciferase [1] = target: T1, WT luciferase (Photinus pyralis, UniProt P08659); assay: Titration assay with purified protein; conditions: for Km: 3 minutes post-substrate addition, read-out: Apparent Km
T1 construct: The full firefly (Photinus pyralis) luciferase gene was PCR amplified from pGL3 (Promega); GST (N, cleaved yes); made in house; host or cells: E. coli JM109
T1 sequence (P08659 whole entry): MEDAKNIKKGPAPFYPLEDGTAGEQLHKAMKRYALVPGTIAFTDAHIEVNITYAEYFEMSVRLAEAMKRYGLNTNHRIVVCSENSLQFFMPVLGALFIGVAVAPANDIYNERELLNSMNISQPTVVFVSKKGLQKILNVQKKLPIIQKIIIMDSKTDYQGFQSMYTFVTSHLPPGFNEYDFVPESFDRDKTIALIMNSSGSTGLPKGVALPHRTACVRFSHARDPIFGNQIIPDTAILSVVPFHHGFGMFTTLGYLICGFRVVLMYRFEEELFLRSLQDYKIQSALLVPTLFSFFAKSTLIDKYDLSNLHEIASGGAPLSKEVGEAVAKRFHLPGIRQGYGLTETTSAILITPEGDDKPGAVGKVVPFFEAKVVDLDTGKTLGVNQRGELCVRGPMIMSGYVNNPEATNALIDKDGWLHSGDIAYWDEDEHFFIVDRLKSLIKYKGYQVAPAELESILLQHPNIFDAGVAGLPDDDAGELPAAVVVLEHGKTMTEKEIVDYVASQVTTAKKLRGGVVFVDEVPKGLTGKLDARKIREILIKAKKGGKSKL
Experimental: (§1) The PCR product was cloned into the BamH1 and NotI sites of pGEX6P-1 for bacterial expression. Mutant proteins were created using the Quickchange site-directed mutagenesis kit (Stratagene). Saturating mutagenesis was performed using the used the degenerate codon NNK at sites predicted to impact or alter substrate biding including F247, T251, L286, S347, R337, R218, Q338, Y340, A313, and I351 using the degenerate codon NNK. The point mutants S347A, L286A, A348G, E311A, I351A, A313G, R337A, H245A and L342A were made independently.
Luminescence assays in 96-well plates were initiated by adding 30 μL 2× substrate in 20 mM Tris pH 7.6, 0.1 mM EDTA, 8 mM MgSO4, 4 mM ATP, and 1 mM TCEP to 30 μL of 20 nM purified luciferase in 20 mM Tris pH 7.6, 0.1 mM EDTA, 1 mM TCEP and 0.4 mg/mL BSA. Titration assays were performed 3 minutes post-substrate addition in a Turner Veritas luminometer with final substrate concentrations ranging from 0.122-250 μM or 0.244-500 μM.

S347A mutant luciferase = target: T2, S347A mutant luciferase (Photinus pyralis, UniProt P08659, S347A); conditions: purified protein; for Km: 3 minutes post-substrate addition, read-out: Apparent Km
T2 construct: The full firefly (Photinus pyralis) luciferase gene was PCR amplified from pGL3 (Promega); GST (N, cleaved yes); made in house; host or cells: E. coli JM109
T2 sequence (P08659 whole entry S347A): as the sequence (P08659 whole entry) above, with S347A counted along it
Experimental: as §1, with “NNK.” for “NNK. The point mutants S347A, L286A, A348G, E311A, I351A, A313G, R337A, H245A and L342A were made independently.”
(§2) Luminescence assays in 96-well plates were initiated by adding 30 μL 2× substrate in 20 mM Tris pH 7.6, 0.1 mM EDTA, 8 mM MgSO4, 4 mM ATP, and 1 mM TCEP to 30 μL of 20 nM purified luciferase in 20 mM Tris pH 7.6, 0.1 mM EDTA, 1 mM TCEP and 0.4 mg/mL BSA.

R218K mutant luciferase = target: T3, R218K mutant luciferase (Photinus pyralis, UniProt P08659, R218K); conditions: for Apparent Vmax / Km: R218K luciferase, purified protein; for Km: 3 minutes post-substrate addition, read-out: Apparent Km
T3 construct: The full firefly (Photinus pyralis) luciferase gene was PCR amplified from pGL3 (Promega); GST (N, cleaved yes); made in house; host or cells: E. coli JM109
T3 sequence (P08659 whole entry R218K): as the sequence (P08659 whole entry) above, with R218K counted along it
Experimental: as §1, with “NNK.” for “NNK. The point mutants S347A, L286A, A348G, E311A, I351A, A313G, R337A, H245A and L342A were made independently.”
as §2

L342A luciferase = target: T4, L342A luciferase (Photinus pyralis, UniProt P08659, L342A); assay: Bioluminescence emission scan
T4 construct: The full firefly (Photinus pyralis) luciferase gene was PCR amplified from pGL3 (Promega); GST (N, cleaved yes); made in house; host or cells: E. coli JM109
T4 sequence (P08659 whole entry L342A): as the sequence (P08659 whole entry) above, with L342A counted along it
Experimental: (§3) Purified mutant luciferases were used in bioluminescence emission and burst kinetics scans.
(§4) Luciferase was rapidly injected into a cuvette containing substrate, and the emission from 400-800 nm was recorded in a SPEX FluoroMax-3 fluorimeter with closed excitation slits.

R218K luciferase = target: T5, R218K luciferase (Photinus pyralis, UniProt P08659, R218K); assay: Bioluminescence emission scan
T5 construct: The full firefly (Photinus pyralis) luciferase gene was PCR amplified from pGL3 (Promega); GST (N, cleaved yes); made in house; host or cells: E. coli JM109
T5 sequence (P08659 whole entry R218K): as the sequence (P08659 whole entry) above, with R218K counted along it
Experimental: as §3, §4

L286M + S347A luciferase = target: T6, L286M + S347A luciferase (Photinus pyralis, UniProt P08659, L286M/S347A); assay: Bioluminescence emission scan
T6 construct: The full firefly (Photinus pyralis) luciferase gene was PCR amplified from pGL3 (Promega); GST (N, cleaved yes); made in house; host or cells: E. coli JM109
T6 sequence (P08659 whole entry L286M/S347A): as the sequence (P08659 whole entry) above, with L286M, S347A counted along it
Experimental: as §3, §4

L286M mutant luciferase = target: T7, L286M mutant luciferase (Photinus pyralis, UniProt P08659, L286M); assay: Titration assay with purified protein; conditions: for Km: 3 minutes post-substrate addition, read-out: Apparent Km
T7 construct: The full firefly (Photinus pyralis) luciferase gene was PCR amplified from pGL3 (Promega); GST (N, cleaved yes); made in house; host or cells: E. coli JM109
T7 sequence (P08659 whole entry L286M): as the sequence (P08659 whole entry) above, with L286M counted along it
Experimental: as §1, with “NNK.” for “NNK. The point mutants S347A, L286A, A348G, E311A, I351A, A313G, R337A, H245A and L342A were made independently.”
as §2

T251S mutant luciferase = target: T8, T251S mutant luciferase (Photinus pyralis, UniProt P08659, T251S); assay: Titration assay with purified protein; conditions: for Km: 3 minutes post-substrate addition, read-out: Apparent Km
T8 construct: The full firefly (Photinus pyralis) luciferase gene was PCR amplified from pGL3 (Promega); GST (N, cleaved yes); made in house; host or cells: E. coli JM109
T8 sequence (P08659 whole entry T251S): as the sequence (P08659 whole entry) above, with T251S counted along it
Experimental: as §1, with “NNK.” for “NNK. The point mutants S347A, L286A, A348G, E311A, I351A, A313G, R337A, H245A and L342A were made independently.”
as §2

WT luciferase [2] = target: T1, WT luciferase; conditions: for Maximum Emission Wavelength of Selected Substrate: Table 3
Experimental: (§5) Purified mutant luciferases were used in bioluminescence emission and burst kinetics scans. Each purified protein in 20 mM Tris pH 7.6, 0.1 mM EDTA, 1 mM TCEP and 0.4 mg/mL BSA was added to 2× substrate in 20 mM Tris pH 7.6, 0.1 mM EDTA, 8 mM MgSO4, 4 mM ATP, and 1 mM TCEP in a cuvette.
as §4

R218K + L342A luciferase = target: T9, R218K + L342A luciferase (Photinus pyralis, UniProt P08659, L342A/R218K)
T9 construct: The full firefly (Photinus pyralis) luciferase gene was PCR amplified from pGL3 (Promega); GST (N, cleaved yes); made in house; host or cells: E. coli JM109
T9 sequence (P08659 whole entry R218K/L342A): as the sequence (P08659 whole entry) above, with R218K, L342A counted along it
Experimental: as §5, §4

L286M luciferase = target: T10, L286M luciferase (Photinus pyralis, UniProt P08659, L286M); assay: Bioluminescence emission scan
T10 construct: The full firefly (Photinus pyralis) luciferase gene was PCR amplified from pGL3 (Promega); GST (N, cleaved yes); made in house; host or cells: E. coli JM109
T10 sequence (P08659 whole entry L286M): as the sequence (P08659 whole entry) above, with L286M counted along it
Experimental: as §3, §4

F247V luciferase = target: T11, F247V luciferase (Photinus pyralis, UniProt P08659, F247V); assay: Bioluminescence emission scan
T11 construct: The full firefly (Photinus pyralis) luciferase gene was PCR amplified from pGL3 (Promega); GST (N, cleaved yes); made in house; host or cells: E. coli JM109
T11 sequence (P08659 whole entry F247V): as the sequence (P08659 whole entry) above, with F247V counted along it
Experimental: as §3, §4

| SMILES | Apparent Vmax (WT luciferase [1]) | Km (WT luciferase [1]) [µM] | Apparent Vmax (S347A mutant luciferase) | Km (S347A mutant luciferase) [µM] | Apparent Vmax (R218K mutant luciferase) | Km (R218K mutant luciferase) | Maximum Emission Wavelength of Selected Substrate (L342A luciferase) [nm] | Maximum Emission Wavelength of Selected Substrate (R218K luciferase) [nm] | Maximum Emission Wavelength of Selected Substrate (L286M + S347A luciferase) [nm] | Apparent Vmax (L286M mutant luciferase) | Km (L286M mutant luciferase) [µM] | Apparent Vmax (T251S mutant luciferase) | Km (T251S mutant luciferase) [µM] | Maximum Emission Wavelength of Selected Substrate (WT luciferase [2]) [nm] | Maximum Emission Wavelength of Selected Substrate (R218K + L342A luciferase) [nm] | improvement in the maximal sustained emission (R218K mutant luciferase; R218K mutant relative to wild-type luciferase) [fold] | Maximum Emission Wavelength of Selected Substrate (R218K luciferase; listed as Cyc2) [nm] | Wavelength at Max. Emission (L286M luciferase) [nm] | Wavelength at Max. Emission (F247V luciferase) [nm] | Wavelength at Max. Emission (WT luciferase [2]; Table 2) [nm] |
| --- | --- | --- | --- | --- | --- | --- | --- | --- | --- | --- | --- | --- | --- | --- | --- | --- | --- | --- | --- | --- |
| CN(C)c1ccc2nc(C3=NC(C(=O)O)CS3)sc2c1 (stereo not drawn) [6′-Me2NLH2] | 0.5 ± 0.003 ×10^−5 cps | 0.025 ± 0.003 | 2.1 ± 0.02 ×10^−5 cps | 0.24 ± 0.014 | 5 ± 0.1 ×10^−5 cps | 0.35 ± 0.04 µM | 619 | 624 | 608 | 1.3 ± 0.01 ×10^−5 cps | 0.08 ± 0.005 | 1.6 ± 0.02 ×10^−5 cps | 0.3 ± 0.02 | 619 | 628 | – | – | – | – | – |
| CNc1ccc2nc(C3=NC(C(=O)O)CS3)sc2c1 (stereo not drawn) [6′-MeNHLH2, Monomethylaminoluciferin] | 3 ± 0.02 ×10^−5 cps | 0.06 ± 0.004 | 16 ± 0.2 ×10^−5 cps | 0.47 ± 0.03 | 38 ± 0.5 ×10^−5 cps | 0.45 ± 0.04 µM | 611 | 610 | 599 | 7 ± 0.05 ×10^−5 cps | 0.08 ± 0.005 | 8 ± 0.1 ×10^−5 cps | 0.27 ± 0.02 | 608 | 612 | – | – | – | – | – |
| CN1CCc2cc3nc(C4=N[C@@H](C(=O)O)CS4)sc3cc21 [CycLuc2] | 1.3 ± 0.02 ×10^−5 cps | – | 7.6 ± 0.05 ×10^−5 cps | 0.11 ± 0.005 | 26 ± 0.3 ×10^−5 cps | 0.3 µM and 0.27 µM | 611 | 621 | 608 | 2.3 ± 0.02 ×10^−5 cps | 0.1 ± 0.01 | 4.8 ± 0.1 ×10^−5 cps | 0.13 ± 0.02 | 609 | 617 | 20 | 619 | – | – | – |
| O=C(O)C1CSC(c2nc3cc4c(cc3s2)NCCO4)=N1 (stereo not drawn) [CycLuc3, 2-(7,8-Dihydro-6H-5-oxa-1-thia-3,8-diaza-cyclopenta[b]naphthalen-2-yl)-4,5-dihydro-thiazole-4-carboxylic acid] | – | – | – | – | – | – | 599 | 605 | 590 | – | – | – | – | 599 | 606 | – | – | 592 | 599 | 594 |
| CN1CCOc2cc3nc(C4=NC(C(=O)O)CS4)sc3cc21 (stereo not drawn) [CycLuc4, 2-(8-Methyl-7,8-dihydro-6H-5-oxa-1-thia-3,8-diaza-cyclopenta[b]naphthalen-2-yl)-4,5-dihydro-thiazole-4-carboxylic acid] | – | – | – | – | – | – | 608 | 617 | 602 | – | – | – | – | 607 | 616 | – | – | – | – | – |
| CC1=CC(C)(C)Nc2cc3sc(C4=NC(C(=O)O)CS4)nc3cc21 (stereo not drawn) [CycLuc5, 2-(6,6,8-Trimethyl-5,6-dihydro-thiazolo[4,5-g]quinolin-2-yl)-4,5-dihydro-thiazole-4-carboxylic acid] | – | – | – | – | – | – | 631 | 635 | 631 | – | – | – | – | 637 | 633 | – | – | – | – | – |
| CC1=CC(C)(C)N(C)c2cc3sc(C4=NC(C(=O)O)CS4)nc3cc21 (stereo not drawn) [CycLuc6, 2-(5,6,6,8-Tetramethyl-5,6-dihydro-thiazolo[4,5-g]quinolin-2-yl)-4,5-dihydro-thiazole-4-carboxylic acid] | – | – | – | – | – | – | 639 | 637 | 628 | – | – | – | – | 636 | 635 | – | – | – | – | – |
